# Measurements reported in patent US20260365696A1, “INHIBITORS OF PTP1B / NCK1 INTERACTION AND METHODS OF MAKING AND USING SAME” (Radella Pharmaceuticals LLC, priority 2023, published 2026).
# Non-standard residues stand in square brackets, D forms with d. Residues, ends and D or L forms follow the SMILES beside them. pGlu = O=C1CC[C@@H](C(=O)O)N1
# Target: T1, SH3-2 domain of NCK1 (Homo sapiens, UniProt P16333)
# T1 construct: To amplify the NCK1 SH3-2 domain, the primers; 10xHis tag with TEV site (vector pSF-OXB20-NH2-10HIS) (N, cleaved yes); made in house; host or cells: E. coli C43(DE3)
# Assay: Isothermal titration calorimetry (ITC) binding to NCK1 SH3-2 domain
# Conditions: Alanine scanning of the MD17 15-mer peptide; ITC, 25 °C, pH 8.0
# Description: Human PTP1B cDNA (NM_002827) and human NCK1 cDNA (NM 006153) were obtained (Origene, MD, USA). PTP1B Primers were designed to amplify the ORFs with added homology to the cut vector (EcoRI-digested pSF-OXB20-NH2-10HIS) in the forward primer sequence. To amplify full-length PTP1B, the primers ptp1b_FL_fwd ([…]) (SEQ ID NO: 159) and ptp1b_FL_rev ([…]) (SEQ ID NO: 160) were used. To amplify truncations of PTP1B, the following primer pairs were used: ptp1b_FL-Fwd and one of Ptplb_323stop_rev (gtgcaggaggagttcgaatt[…]) (SEQ ID NO: 161), ptp1b_344stop_rev ([…]) (SEQ ID NO: 162) or ptp1b_278stop_rev([…]) (SEQ ID NO: 163). To amplify the NCK1 SH3-2 domain, the primers ncklsh32_fwd ([…]) (SEQ ID NO: 164) and ncklsh32_rev ([…]) (SEQ ID NO: 165) were used. The amplified fragments were purified using a DNA clean-up kit according to manufacturer's instructions (QIAquick PCR purification kit, Qiagen).
# To produce and purify fusion proteins, a culture was inoculated with 1% of overnight-cultured inoculum. Protein expression was carried out under the conditions described above, scaled up as necessary. Cells expressing the recombinant proteins were harvested in 50 mL tubes by centrifugation and stored at −80 °C. Cells containing the expressed gene product were thawed over ice and resuspended in Extraction buffer (10 mM Tris, pH 7.4 or 10 mM Sodium Phosphate, pH 8.0; 300 mM NaCl, 1 mM DTT or TCEP; 0-10% glycerol and 1 μg lysozyme) and sonicated over ice (4 °C) for 3 min total using pulses of 5 s with 15 s intervals, using a wide probe at 15 amplitude microns (Soniprep 150, MSE). Insoluble material was removed from the lysate by centrifugation at 20K rpm for 20-60 min at 4 °C. Supernatant was filtered through a 0.22 μm PVDF filter membrane and applied to 1-2 5 mL HisTrap FF Crude (Cytiva) prepacked Ni columns and connected to an AKTA explorer. After thorough washing with binding buffer (10 mM Tris, pH 7.4 or 10 mM Sodium Phosphate, pH 8.0; 300 mM NaCl; 1 mM DTT or TCEP and 25 mM Imidazole), protein was eluted using elution buffer (10 mM Tris, pH 7.4 or 10 mM Sodium Phosphate, pH 8.0; 150-300 mM NaCl; 1 mM DTT or TCEP and 250 mM Imidazole). Fractions containing protein of interest were confirmed by SDS PAGE. Protein was diluted with GF buffer (10 mM Tris, pH 7.4 or 10 mM Sodium Phosphate, pH 8.0; 150-300 mM NaCl) and subjected to TEV protease treatment overnight at 4-10 °C. Following proteolytic digestion, HIS-tag and TEV protease were removed by filtration through a clean 5 mL HisTrap FF Crude (Cytiva) prepacked Ni column. Protein was concentrated on a PES ultrafiltration device by centrifugation at 4000 rpm at 4 °C, and protein was polished via a HiPrep S-100 26/60 (Cytiva) using GF buffer (as described above). Purified proteins were concentrated using ultrafiltration, and protein concentration was determined using ultraviolet-visible spectroscopy. The integrity and identity of all proteins were verified by mass spectrographic analysis.
# Isothermal titration calorimetry (ITC) was used to determine binding affinities for peptides against the SH3-2 domain of NCK1. Experiments were conducted at 25 °C using either a MicroCal iTC200 or MicroCal PEAQ-ITC calorimeter. The buffer used for all ITC experiments was 10 mM sodium [COMPOUND LEFT OUT] mM sodium chloride (pH=8.0). A series of peptides (concentration 3-7.5 mM) were titrated in to NCK1 SH3-2 domain (concentration 0.125-0.3 mM) using the following conditions: one injection of 0.2 μL followed by 19 injections of 2 μL, 120-150 seconds spacing between injections, at 25 °C. The data were fit using analysis software provided by the manufacturer and affinity values were calculated. The best fitting occurred when the number of sites was between 0.8 and 1.2. The experiments were repeated twice for a total of three times, and the average binding affinity for each peptide was generated. […]
row,Compound,Kd [µM]
1,Ac-PPPEAIPPPPRPPKR-NH2 [MSJ016],≤ 300
2,Ac-PPPEHIPPPPRPPAR-NH2 [MH006],≤ 300
3,Ac-PPPEHIPPPPRPPKA-NH2 [MH007],> 1000
4,Ac-PPPEHIPPPPAPPKR-NH2 [MH003],≤ 300

# Continued, values first:
row,Kd [µM],Compound
1,≤ 300,Ac-PPPEHIPAPPRPPKR-NH2 [MSJ019]
2,≤ 300,Ac-PPPEHAPPPPRPPKR-NH2 [MSJ017]
3,≤ 300,Ac-PPPEHIPPAPRPPKR-NH2 [MH001]
4,> 1000,Ac-PPPEHIPPPARPPKR-NH2 [MH002]

# Same assay, conditions: Alanine scanning of the MD20 6-mer peptide; ITC, 25 °C, pH 8.0
row,Kd [µM],Compound
1,> 1000,"Ac-PRPAKR-NH2 [MH011, Ac-PRPAKR-NH2]"
2,> 1000,"Ac-ARPPKR-NH2 [MH008, Ac-ARPPKR-NH2]"

# Same assay, conditions: ITC
row,binding to NCK1 SH3-2 domain (in words),Compound
1,abolished binding,"Ac-PRPPK-NH2 [MH022, Ac-PRPPK-NH2]"

# Same assay, conditions: Modified MD18/MD20 peptides; ITC, 25 °C, pH 8.0
row,Compound,Kd [µM]
1,"H-PPRPPKR-NH2 [MH075, H-PPRPPKR-NH2]",≤ 300
2,"N=C(N)NCCC[C@H](NC(=O)[C@H](CCCCN)NC(=O)[C@@H]1CCCN1C(=O)[C@@H]1CCCN1C(=O)[C@H](CCCNC(=N)N)NC(=O)[C@@H]1CCCN1C(=O)[C@@H]1CCC(=O)N1)C(N)=O [MH043, H-Pyr-PRPPKR-NH2] ([pGlu]PRPPKR-NH2)",≤ 300
3,"CCNC(=O)[C@H](CCCNC(=N)N)NC(=O)[C@H](CCCCN)NC(=O)[C@@H]1CCCN1C(=O)[C@@H]1CCCN1C(=O)[C@H](CCCNC(=N)N)NC(=O)[C@@H]1CCCN1C(=O)[C@@H]1CCCN1C(C)=O [MH046, Ac-PPRPPKR-NHEt] (Ac-PPRPPKR-NHEt)",≤ 300

# Second part, the compound after the results:
row,Kd [µM],Compound
1,> 1000,"H-PRPPKR-NH2 [MH080, H-PRPPKR-NH2]"
2,> 1000,"N=C(N)NCCC[C@H](NC(=O)[C@H](CCCCN)NC(=O)[C@@H]1CCCN1C(=O)[C@@H]1CCCN1C(=O)[C@H](CCCNC(=N)N)NC(=O)[C@@H]1CCC(=O)N1)C(N)=O [MH044, H-Pyr-RPPKR-NH2] ([pGlu]RPPKR-NH2)"

# Same assay, conditions: N- or C-terminal extensions; ITC, 25 °C, pH 8.0; 30-mers tested one to three times
row,Compound,Kd [µM]
1,Ac-SVQDQWKELSHEDLEPPPEHIPPPPRPPKR-NH2 [MH136],≤ 300
2,Ac-HEDLEPPPEHIPPPPRPPKR-NH2 [MH090],≤ 300
3,Ac-PPPEHIPPPPRPPKRILEPH-NH2 [MH089],≤ 300

# The remaining lines, values ahead:
row,Kd [µM],Compound
1,≤ 300,Ac-PPPEHIPPPPRPPKRILEPHNGKCREFFPN-NH2 [MH137]
2,≤ 300,Ac-WKELSHEDLEPPPEHIPPPPRPPKR-NH2 [MH135]
3,≤ 300,Ac-PPRPPKRI-NH2 [MH063]

# Same assay, conditions: Peptide truncation analysis; ITC, 25 °C, pH 8.0
row,Compound,Kd [µM]
1,Ac-EHIPPPPRPPKR-NH2 [MH028],≤ 300
2,Ac-PPPRPPKR-NH2 [MH024],≤ 300
3,"CC(=O)N1CCC[C@H]1C(=O)N[C@@H](CCCNC(=N)N)C(=O)N1CCC[C@H]1C(N)=O [MH019, Ac-PRP-NH2] (Ac-Pro-Arg-Pro-NH2)",> 1000
4,"Ac-PRPPK-NH2 [MH022, Ac-PRPPK-NH2]",> 1000

# Other lines, results leading:
row,Kd [µM],Compound
1,> 1000,"Ac-RPPKR-NH2 [MH018, Ac-RPPKR-NH2]"
2,≤ 300,Ac-IPPPPRPPKR-NH2 [MH026]
3,≤ 300,Ac-PPPPRPPKR-NH2 [MH025]
4,> 1000,"CC(=O)N1CCC[C@H]1C(=O)N1CCC[C@H]1C(=O)N[C@@H](CCCCN)C(N)=O [MH015, Ac-PPK-NH2] (Ac-Pro-Pro-Lys-NH2)"

# Same assay, conditions: Sliding window peptide analysis; ITC, 25 °C, pH 8.0
row,Kd [µM],Compound
1,> 1000,"Ac-PPEHIP-NH2 [MH040, Ac-PPEHIP-NH2]"
2,> 1000,"Ac-PPPPRP-NH2 [MH037, Ac-PPPPRP-NH2]"
3,> 1000,"Ac-PPPRPP-NH2 [MH036, Ac-PPPRPP-NH2]"

# Same assay, conditions: exemplary control peptides; ITC, 25 °C, pH 8.0
row,Kd [µM],Compound
1,> 1000,"H-PAVPPRP-NH2 [MH081, H-PAVPPRP-NH2, reference compound]"

# Same assay, conditions: substitutions at position 1 of MD18; ITC, 25 °C, pH 8.0
row,Kd [µM],Compound
1,≤ 300,"Ac-YPRPPKR-NH2 [MH119, Ac-YPRPPKR-NH2]"
2,≤ 300,"Ac-EPRPPKR-NH2 [MH071, Ac-EPRPPKR-NH2]"
3,≤ 300,"Ac-HPRPPKR-NH2 [MH072, Ac-HPRPPKR-NH2]"
4,≤ 300,"Ac-GPRPPKR-NH2 [MH091, Ac-GPRPPKR-NH2]"

# Same assay, conditions: substitutions at position 8 of the 8-mer MH063; ITC, 25 °C, pH 8.0; certain peptides tested one to three times
row,Kd [µM],Compound
1,≤ 300,Ac-PPRPPKRI-NH2 [MH063]
